According to publication PMC6407579, “New flavonoid – N,N-dibenzyl(N-methyl)amine hybrids: Multi-target-directed agents for Alzheimer´s disease endowed with neurogenic properties” (Journal of Enzyme Inhibition and Medicinal Chemistry, 2019):
Several values for one entry are separate records, joined by “and”; a condition that tells them apart may be missing. Equal entries are not always repeated. Where two headings read alike, the source gives them in different places.

Columns and labels:
[1] = biological target: T1, human recombinant AChE (hAChE) (Homo sapiens, UniProt P22303); assay: biochemical
T1 construct: purchased Sigma Chemical Co
T1 sequence (P22303 32-614): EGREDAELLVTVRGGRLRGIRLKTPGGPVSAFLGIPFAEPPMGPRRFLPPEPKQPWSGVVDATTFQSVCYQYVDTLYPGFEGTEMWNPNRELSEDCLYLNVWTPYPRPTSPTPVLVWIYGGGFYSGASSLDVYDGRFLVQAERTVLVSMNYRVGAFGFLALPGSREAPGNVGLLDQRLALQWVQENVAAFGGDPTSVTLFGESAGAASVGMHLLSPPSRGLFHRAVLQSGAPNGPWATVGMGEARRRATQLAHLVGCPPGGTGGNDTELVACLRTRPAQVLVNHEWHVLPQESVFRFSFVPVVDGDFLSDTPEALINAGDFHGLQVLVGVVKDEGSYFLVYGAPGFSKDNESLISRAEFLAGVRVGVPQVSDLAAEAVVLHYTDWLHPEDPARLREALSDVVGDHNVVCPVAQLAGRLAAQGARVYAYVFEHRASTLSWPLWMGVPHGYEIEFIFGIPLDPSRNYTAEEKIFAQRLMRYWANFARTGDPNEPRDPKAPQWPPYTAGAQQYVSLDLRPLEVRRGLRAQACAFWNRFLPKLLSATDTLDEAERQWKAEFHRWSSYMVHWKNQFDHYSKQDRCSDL
Description: The Ellman method was followed, using human recombinant AChE and BuChE from human serum. The assay solution consisted of 0.1 M phosphate buffer pH 8.0, 400 μM 5,5´-dithiobis(2-nitrobenzoic acid) (DTNB, Ellman’s reagent), 0.05 U/mL hAChE (Sigma Chemical Co.) or 0.024 U/mL hBuChE (Sigma Chemical Co.), and 800 μM acetylthiocholine iodide, or 500 μM butyrylthiocholine as the substrate of the enzymatic reaction, respectively. The compounds tested were added to the assay solution and preincubated with the enzyme for 5 min at 30 °C. After that period, the substrate was added.

recombinant hMAO-A = biological target: T2, recombinant hMAO-A (Homo sapiens, UniProt P21397); assay: biochemical; type: biochemical; settings: mean ± SEM (n = 3); 100 µM highest concentration tested
T2 sequence (P21397 1-527): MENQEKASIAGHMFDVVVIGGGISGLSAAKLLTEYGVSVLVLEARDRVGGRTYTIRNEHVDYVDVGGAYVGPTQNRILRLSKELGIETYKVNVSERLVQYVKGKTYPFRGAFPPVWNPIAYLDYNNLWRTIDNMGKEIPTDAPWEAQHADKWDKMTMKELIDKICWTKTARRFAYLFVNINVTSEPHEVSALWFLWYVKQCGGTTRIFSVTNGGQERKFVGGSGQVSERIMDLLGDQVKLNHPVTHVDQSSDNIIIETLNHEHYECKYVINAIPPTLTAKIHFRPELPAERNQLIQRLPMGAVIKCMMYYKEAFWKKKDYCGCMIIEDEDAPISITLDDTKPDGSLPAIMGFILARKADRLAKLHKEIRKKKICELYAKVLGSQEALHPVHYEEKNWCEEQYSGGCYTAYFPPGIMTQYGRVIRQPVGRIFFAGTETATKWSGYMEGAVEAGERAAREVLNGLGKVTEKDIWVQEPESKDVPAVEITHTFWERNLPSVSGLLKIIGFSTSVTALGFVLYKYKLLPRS

recombinant hMAO-B = biological target: T3, recombinant hMAO-B (Homo sapiens, UniProt P27338); assay: biochemical; type: biochemical; settings: for IC50: mean ± SEM (n = 3), 100 µM highest concentration tested
T3 sequence (P27338 1-520): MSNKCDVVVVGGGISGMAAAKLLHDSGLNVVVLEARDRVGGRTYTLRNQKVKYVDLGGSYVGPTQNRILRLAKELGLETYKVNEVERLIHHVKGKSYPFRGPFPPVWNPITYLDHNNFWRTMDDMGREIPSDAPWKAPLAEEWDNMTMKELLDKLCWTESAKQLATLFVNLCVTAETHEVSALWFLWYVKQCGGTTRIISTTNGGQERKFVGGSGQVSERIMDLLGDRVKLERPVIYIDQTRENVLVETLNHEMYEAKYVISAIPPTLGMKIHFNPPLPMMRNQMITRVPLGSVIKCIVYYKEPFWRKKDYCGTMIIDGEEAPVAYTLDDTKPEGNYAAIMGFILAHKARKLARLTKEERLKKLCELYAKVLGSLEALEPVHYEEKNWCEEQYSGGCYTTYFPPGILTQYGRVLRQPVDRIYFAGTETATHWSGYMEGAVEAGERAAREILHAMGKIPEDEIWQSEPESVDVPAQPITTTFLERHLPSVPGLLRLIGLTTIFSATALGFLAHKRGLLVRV

[2] = In vitro blood-brain barrier permeation assay (PAMPA-BBB); type: in vitro ADME; settings: pig, pH 7.4, porcine brain lipid, PBS:ethanol (70:30), 25 °C, read-out: PAMPA-BBB permeability in the CNS (Pe)
Description: Prediction of the brain penetration was evaluated using a parallel artificial membrane permeation assay (PAMPA-BBB), in a similar manner as previously described[36]^,[46]^,[51–53]. Pipetting was performed with a semi-automatic pipettor (CyBi®-SELMA) and UV reading with a microplate spectrophotometer (Multiskan Spectrum, Thermo Electron Co.). Commercial drugs, phosphate buffered saline solution at pH 7.4 (PBS), and dodecane were purchased from Sigma, Aldrich, Acros, and Fluka. Millex filter units (PVDF membrane, diameter 25 mm, pore size 0.45 μm) were acquired from Millipore. The porcine brain lipid (PBL) was obtained from Avanti Polar Lipids. The donor microplate was a 96-well filter plate (PVDF membrane, pore size 0.45 μm) and the acceptor microplate was an indented 96-well plate, both from Millipore. The acceptor 96-well microplate was filled with 200 μL of PBS: ethanol (70:30) and the filter surface of the donor microplate was impregnated with 5 μL of porcine brain lipid (PBL) in dodecane (20 mg mL^−1). Compounds were dissolved in PBS: ethanol (70:30) at 100 μg mL^−1, filtered through a Millex filter, and then added to the donor wells (200 μL). The donor filter plate was carefully put on the acceptor plate to form a sandwich, which was left undisturbed for 120 min at 25 °C. After incubation, the donor plate is carefully removed and the concentration of compounds in the acceptor wells was determined by UV-Vis spectroscopy. Every sample is analysed at five wavelengths, in four wells and at least in three independent runs, and the results are given as the mean ± standard deviation. In each experiment, 11 quality control standards of known BBB permeability were included to validate and normalise the analysis set.
To check if new compounds could be able to reach their CNS-targets, we used the in vitro parallel artificial membrane permeability assay for the blood-brain barrier (PAMPA-BBB) described by Di et al.[87], and partially modified by us for testing molecules with limited water-solubility[36]^,[46]^,[51–53]. The passive CNS-permeation of new compounds 1–13 through a lipid extract of porcine brain was measured at room temperature. In each experiment, 11 commercial drugs of known brain permeability were also tested and their permeability values normalised to the reported PAMPA-BBB data. […].

hLOX-5 = biological target: T4, hLOX-5 (Homo sapiens, UniProt P09917); assay: Inhibition of human lipoxygenase-5 (fluorescence-based, Pufahl); type: biochemical; settings: three independent experiments
T4 sequence (P09917 1-674): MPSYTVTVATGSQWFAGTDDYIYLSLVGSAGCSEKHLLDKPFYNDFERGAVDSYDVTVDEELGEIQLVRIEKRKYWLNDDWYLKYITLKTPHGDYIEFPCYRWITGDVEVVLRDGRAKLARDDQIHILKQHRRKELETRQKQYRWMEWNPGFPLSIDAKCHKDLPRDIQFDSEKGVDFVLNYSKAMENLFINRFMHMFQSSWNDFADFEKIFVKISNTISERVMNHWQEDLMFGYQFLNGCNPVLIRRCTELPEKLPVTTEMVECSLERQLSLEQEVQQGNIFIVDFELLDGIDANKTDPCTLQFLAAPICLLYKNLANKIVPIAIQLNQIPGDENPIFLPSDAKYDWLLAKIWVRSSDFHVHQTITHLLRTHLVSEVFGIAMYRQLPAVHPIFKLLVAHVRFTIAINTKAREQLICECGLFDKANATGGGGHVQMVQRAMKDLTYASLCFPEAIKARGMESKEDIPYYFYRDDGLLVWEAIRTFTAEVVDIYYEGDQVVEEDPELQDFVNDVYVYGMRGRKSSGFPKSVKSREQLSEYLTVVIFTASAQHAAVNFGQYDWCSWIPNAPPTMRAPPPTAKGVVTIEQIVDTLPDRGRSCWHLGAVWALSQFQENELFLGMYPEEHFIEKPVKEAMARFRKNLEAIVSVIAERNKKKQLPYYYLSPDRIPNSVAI
Description: The fluorescence-based enzyme method developed by Pufahl et al. was followed, in 96-well microtiter plates. The assay solution consists of Tris buffer (50 mM, pH 7.5), ethylenediaminetetraacetic acid (EDTA, 2 mM), CaCl2 (2 mM), arachidonic acid (AA, 3 μM), ATP (10 μM), 2',7'-dichlorodihydrofluorescein diacetate (H2DCFDA, 10 μM), hLOX-5 (100 mU/well), bovine glutathione peroxidase (GPx, 25 mU/well) and reduced glutathione (GSH, 1 mM). Compounds to be tested were added to the test solution prior to AA and ATP, and pre-incubated for a period of 10 min at room temperature. Then, the AA and ATP substrates were added; the enzymatic reaction allowed to progress for 20 min and ended by the addition of 40 μL of acetonitrile.
A selection of new hybrids covering different structural motifs was assayed as inhibitors of hLOX-5, followed the method described by Pufahl et al.[55].

[3] = Oxygen radical absorbance capacity assay (ORAC); settings: trolox taken as 1.0
[4] = mean ± SEM (n = 3), read-out: hAChE IC50

| SMILES | IC50 [1, 4] | IC50 (recombinant hMAO-A) | IC50 (recombinant hMAO-B) | Papp at 120 min, 100 μg mL^−1 [2] | hLOX-5 IC50 (hLOX-5; mean ± SEM) | IC50 (hLOX-5; mean ± SEM, read-out: hLOX-5 IC50) | more active in hMAO-B than in hMAO-A (recombinant hMAO-B) | IC50 ([1]; hAChE IC50, mean ± SEM (n = 3)) | ORAC, trolox equivalents [3] | IC50 (hLOX-5; hLOX-5 IC50, mean ± SEM) |
| --- | --- | --- | --- | --- | --- | --- | --- | --- | --- | --- |
| COc1ccc2[nH]c(C(=O)Nc3ccc(CN(C)Cc4ccccc4)cc3)cc(=O)c2c1 [Compound 8, N-(4-((Benzyl(methyl)amino)methyl)phenyl)-6-methoxy-4-oxo-1,4-dihydroquinoline-2-carboxamide] | 2.3 ± 0.1 µM | > 100 µM | > 100 µM | 24.8 ± 2 ×10⁻⁶ cm/s | inactive | > 100 µM | – | – | – | – |
| COc1cccc2[nH]c(C(=O)Nc3ccc(CN(C)Cc4ccccc4)cc3)cc(=O)c12 [Compound 7, N-(4-((Benzyl(methyl)amino)methyl)phenyl)-5-methoxy-4-oxo-1,4-dihydroquinoline-2-carboxamide] | 4 ± 0.4 µM | > 100 µM | 15.2 ± 1 µM | 23 ± 2.1 ×10⁻⁶ cm/s | – | – | 6.6 fold | – | – | – |
| COc1cc(OC)c2c(=O)cc(C(=O)Nc3ccc(CN(C)Cc4ccccc4)cc3)oc2c1 [Compound 3, N-(4-((Benzyl(methyl)amino)methyl)phenyl)-5,7-dimethoxy-4-oxo-4H-chromene-2-carboxamide] | – | > 100 µM | > 100 µM | 19.4 ± 1.7 ×10⁻⁶ cm/s | – | – | – | 3.2 ± 0.4 µM | – | – |
| Cc1c(C)c2c(c(C)c1O)CCC(C)(C(=O)O)O2 (racemic) [Trolox, (±)-6-hydroxy-2,5,7,8-tetramethylchromane-2-carboxylic acid, reference compound] | – | – | – | – | – | – | – | – | 1.0 mmol of trolox/mmol of tested compound | – |
| CN(Cc1ccccc1)Cc1ccc(NC(=O)c2cc(=O)c3cc(O)c(O)cc3[nH]2)cc1 [Compound 12, N-(4-((benzyl(methyl)amino)methyl)phenyl)-6,7-dihydroxy-4-oxo-1,4-dihydroquinoline-2-carboxamide] | – | > 100 µM | > 100 µM | 8.8 ± 0.7 ×10⁻⁶ cm/s | – | – | – | > 10 µM | 0.5 mmol of trolox/mmol of tested compound and 0.5 ± 0.1 mmol of trolox/mmol of tested compound | – |
| COc1cc2[nH]c(C(=O)Nc3cccc(CN(C)Cc4ccccc4)c3)cc(=O)c2cc1OC [Compound 13, N-(3-((Benzyl(methyl)amino)methyl)phenyl)-6,7-dimethoxy-4-oxo-1,4-dihydroquinoline-2-carboxamide] | – | > 100 µM | > 100 µM | 15.1 ± 1.2 ×10⁻⁶ cm/s | – | – | – | > 10 µM | – | 36.6 ± 3.1 µM |
| COc1ccc2c(=O)cc(C(=O)Nc3ccc(CN(C)Cc4ccccc4)cc3)[nH]c2c1 [Compound 10, N-(4-((Benzyl(methyl)amino)methyl)phenyl)-7-methoxy-4-oxo-1,4-dihydroquinoline-2-carboxamide] | – | > 100 µM | > 100 µM | 21.7 ± 1.9 ×10⁻⁶ cm/s | – | – | – | 2.3 ± 0.2 µM | – | 82.8 ± 4.1 µM |
| COc1cc2[nH]c(C(=O)Nc3ccc(CN(C)Cc4ccccc4)cc3)cc(=O)c2cc1OC [Compound 11, N-(4-((benzyl(methyl)amino)methyl)phenyl)-6,7-dimethoxy-4-oxo-1,4-dihydroquinoline-2-carboxamide] | – | > 100 µM | > 100 µM | 19.1 ± 1.5 ×10⁻⁶ cm/s | – | – | – | 4.5 ± 0.3 µM | – | – |
| CN(Cc1ccccc1)Cc1ccc(NC(=O)c2cc(=O)c3cc(O)ccc3[nH]2)cc1 [Compound 9, N-(4-((Benzyl(methyl)amino)methyl)phenyl)-6-hydroxy-4-oxo-1,4-dihydroquinoline-2-carboxamide] | – | > 100 µM | > 100 µM | 8.4 ± 0.7 ×10⁻⁶ cm/s | – | – | – | 3.1 ± 0.3 µM | 1.2 mmol of trolox/mmol of tested compound and 1.2 ± 0.1 mmol of trolox/mmol of tested compound | – |
